# Experimental data from ChEMBL document CHEMBL4651402, “Screening of ~5500 FDA-approved drugs and clinical candidates for anti-SARS-CoV-2 activity” (2021).
# Tested on: SARS-CoV-2
# Assay: microbe, parasite or virus in culture
# Conditions: Severe acute respiratory syndrome coronavirus 2, Vero C1008, 48 h
SMILES,IC50 [µM],IC50 (read-out: pIC50 (converted)) [µM]
CN1CCc2cc3c(cc2[C@H]1[C@@H]1OC(=O)c2c1ccc1c2OCO1)OCO3 [BICUCULLINE],> 20,> 20
COc1cc(C)c2c(Oc3cccc(C(F)(F)F)c3)c(OC)cc(NC(C)CCCN)c2n1 (centres undefined) [TAFENOQUINE],> 20,> 20
CCCCN/C(=N\CC)NC(=N)N [ETOFORMIN],> 20,> 20
CCN[C@H]1C[C@H](C)S(=O)(=O)c2sc(S(N)(=O)=O)cc21 [DORZOLAMIDE],> 20,> 20
CC(C)(O)CC[C@@H](O)[C@](C)(O)[C@H]1CC[C@@]2(O)C3=CC(=O)[C@@H]4C[C@@H](O)[C@@H](O)C[C@]4(C)[C@H]3CC[C@]12C [20-HYDROXYECDYSONE],> 20,> 20
CCc1nc2ccc(Cl)cn2c1C(=O)NCc1ccc(N2CCC(c3ccc(OC(F)(F)F)cc3)CC2)cc1 [TELACEBEC],> 20,> 20
Cc1scc2c1N(C(=O)CN1CCN(C)CC1)c1ccccc1NC2=O [TELENZEPINE],> 20,> 20
COc1ccc(C(=O)Nc2c(Cl)cncc2Cl)cc1OC1CCCC1,> 20,> 20
Cc1nnc2n1-c1ccc(Cl)cc1C(c1ccccc1Cl)=NC2 [TRIAZOLAM],> 20,> 20
Cc1ccc(-c2nc(CN3CCN(C(c4ccccc4)c4ccccc4)CC3)c(C)[nH]2)cc1 [LIFARIZINE],> 20,> 20
Cc1cn(Cc2ccc(Cl)cc2Cl)c2c(/C=C/C(=O)NS(=O)(=O)c3cc(Cl)c(Cl)s3)cc(F)cc12,> 20,> 20
COc1ccc2c(c1)CN(C(=O)CCN1CCC(Cc3ccccc3)CC1)CCS2,> 20,> 20
NCCO [MONOETHANOLAMINE],> 20,> 20
Cc1[nH]cnc1CN1CCc2c(c3ccccc3n2C)C1=O [ALOSETRON],> 20,> 20
O[C@](Cn1cncn1)(Cn1cnc(/C=C/c2ccc(OCC(F)(F)C(F)F)cc2)n1)c1ccc(F)cc1F,> 20,> 20
CCC1(c2cccc(O)c2)CCCCN(C)C1 (centres undefined) [MEPTAZINOL],> 20,> 20
CC(C)(C)NC(=O)c1ccc(Oc2cc(F)c(CC(=O)O)cc2Cl)c(NS(=O)(=O)c2ccc(C3CC3)cc2Cl)c1 [VIDUPIPRANT],> 20,> 20
COc1ccc(/C=C/C(=O)Nc2ccccc2C(=O)O)cc1OC,> 20,> 20
C[C@@H]1CC(=O)NN=C1c1ccc(NN=C(C#N)C#N)cc1 [LEVOSIMENDAN],> 20,> 20
CO[C@@H]1[C@@H](OC(N)=O)[C@@H](O)[C@H](Oc2ccc3c(O)c(NC(=O)c4ccc(O)c(CC=C(C)C)c4)c(=O)oc3c2C)OC1(C)C [NOVOBIOCIN],> 20,> 20
CN1CC(=O)NC1=N [CREATININE],> 20,> 20
CCOc1ccc(Cc2cc([C@@H]3O[C@H](SC)[C@@H](O)[C@H](O)[C@H]3O)ccc2Cl)cc1 [SOTAGLIFLOZIN],> 20,> 20
CC12CCC3C(CCC4CC(=O)CCC43C)C1CCC2=O (centres undefined),> 20,> 20
CCOC(=O)[C@H](CCc1ccccc1)CC1(C(=O)N[C@H]2CCc3ccccc3N(CC(=O)O)C2=O)CCCC1,> 20,> 20

SMILES,IC50 [µM],IC50 (read-out: pIC50 (converted)) [µM]
Cc1cn([C@H]2C[C@H](N=[N+]=[N-])[C@@H](CO)O2)c(=O)[nH]c1=O [ZIDOVUDINE],> 100,> 100
CN1C(CSCC(F)(F)F)Nc2cc(Cl)c(S(N)(=O)=O)cc2S1(=O)=O (centres undefined) [POLYTHIAZIDE],> 20,> 20
CCCc1cc2c(O)c(C(=O)OC)cnc2cc1N(CC)CC [AMQUINATE],> 20,> 20
C[C@@H](O)[C@H]1C(=O)N2C(C(=O)O)=C(S[C@@H]3CN[C@H](C(=O)N(C)C)C3)[C@H](C)[C@H]12 [MEROPENEM],> 20,> 20
COc1ccc(-c2ccc3ncc4c(c3c2)n(-c2ccc(N3CCNCC3)c(C(F)(F)F)c2)c(=O)n4C)cn1 [BGT-226 FREE BASE],> 20,> 20
CCCN(CCC)S(=O)(=O)c1ccc(C(=O)O)cc1 [PROBENECID],> 20,> 20
N=C(N)NCCCCNC(=N)N [ARCAINE],> 20,> 20
CC1NCCOC1c1ccccc1 (centres undefined) [PHENMETRAZINE],> 20,> 20
Cc1noc(NS(=O)(=O)c2ccc(N)cc2)c1C [SULFISOXAZOLE],> 20,> 20
CC(=O)N[C@@H](CC(=O)N[C@H](CCC(=O)O)C(=O)O)C(=O)O,> 20,> 20
CC(C)OC(=O)CCC/C=C\C[C@@H]1[C@@H](CC[C@@H](O)CCc2ccccc2)[C@H](O)C[C@@H]1O [LATANOPROST],> 20,> 20
CC(C)CC(NC(=O)C(Cc1ccccc1)NC(=O)CNC(=O)[C@H](C)NC(=O)C(N)Cc1ccc(O)cc1)C(=O)N[C@H](CCCNC(=N)N)C(=O)O (some centres undefined),> 20,> 20
O=C(O)[C@H]1C2CCC(CC2)[C@@H]1Nc1nc(-c2c[nH]c3ncc(F)cc23)ncc1F [PIMODIVIR],> 20,> 20
CC(C)(CO)[C@@H](O)C(=O)NCCCO [DEXPANTHENOL],> 20,> 20
CN(C)CCc1ccc(O)cc1 [HORDENINE],> 20,> 20
CC(C)CN(C[C@@H](OP(=O)(O)O)[C@H](Cc1ccccc1)NC(=O)O[C@H]1CCOC1)S(=O)(=O)c1ccc(N)cc1 [FOSAMPRENAVIR],> 20,> 20
CC(=O)OC(C)C(=O)OCC[N+](C)(C)C (centres undefined) [ACLATONIUM],> 20,> 20
CC(C(=O)O)c1cccc(C(=O)c2ccccc2)c1 (centres undefined) [KETOPROFEN],> 20,> 20
[N-]=[N+]=N[C@]1(CO)O[C@@H](n2ccc(N)nc2=O)[C@H](O)[C@@H]1O [4'-AZIDOCYTIDINE],> 20,> 20
CCCNC(=O)NS(=O)(=O)c1ccc(Cl)cc1 [CHLORPROPAMIDE],> 20,> 20
O=C(O)[C@@H]1C[C@@H](C2CCCCC2)CN1C(=O)CP(=O)(O)CCCCc1ccccc1 [FOSINOPRILAT],> 20,> 20
C/C=C/CC(C)C(O)C1C(=O)NC(CC)C(=O)N(C)CC(=O)N(C)C(C(C)CC)C(=O)NC(C(C)C)C(=O)N(C)C(CC(C)C)C(=O)NC(C)C(=O)NC(C)C(=O)N(C)C(CC(C)C)C(=O)N(C)C(CC(C)C)C(=O)N(C)C(C(C)C)C(=O)N1C (centres undefined),> 20,> 20
COc1ccccc1OCC1CNC(=O)O1 (centres undefined) [MEPHENOXALONE],> 20,> 20
C[N+](C)(Cc1ccc(NC(=O)c2ccc(Cl)c(Cl)c2)cc1)C1CCOCC1 [JNJ-17166864 CATION],> 20,> 20

SMILES,IC50 [µM],IC50 (read-out: pIC50 (converted)) [µM]
CC(Oc1ccc(Cl)cc1Cl)C(=O)O (stereo not drawn) [RAC-DICHLORPROP],> 20,> 20
CC12C=CC(=O)C=C1CCC1C2CCC2(C)C(=O)CCC12 (centres undefined),> 20,> 20
CCCCC1C(=O)NC(=O)N(C2CCCCC2)C1=O (centres undefined) [BUCOLOME],> 20,> 20
CC(=O)OCC(=O)[C@@]1(O)CCC2C3CCC4=CC(=O)CC[C@]4(C)C3=CC[C@@]21C (some centres undefined),> 20,> 20
CC1O[C@@H](OC2C(O)[C@H](OCCc3ccc(O)c(O)c3)OC(CO)[C@H]2OC(=O)/C=C/c2ccc(O)c(O)c2)C(O)C(O)[C@H]1O (some centres undefined),> 20,> 20
NS(=O)(=O)c1cc(Cl)c(Cl)c(S(N)(=O)=O)c1 [DICHLORPHENAMIDE],> 20,> 20
CCn1cc(C(=O)O)c(=O)c2cc(F)c(N3CCN(C)CC3)cc21 [PEFLOXACIN],> 20,> 20
c1ccc(C2CN=C3NCCN32)cc1 (centres undefined) [IMAFEN],> 20,> 20
Cc1cccc(Cc2c[nH]cn2)c1C [DETOMIDINE],> 20,> 20
OC[C@H]1O[C@@H](Oc2cc(O)cc(/C=C/c3ccc(O)cc3)c2)[C@H](O)[C@@H](O)[C@@H]1O [PICEID],> 20,> 20
Nc1ccc(S(=O)(=O)NC(=O)c2ccccc2)cc1 [SULFABENZAMIDE],> 20,> 20
CCN(CC)CCOC(=O)C(c1ccccc1)C1CCCCC1 (centres undefined) [DROFENINE],> 20,> 20
CC[C@@]1(O)C(=O)OCc2c1cc1n(c2=O)Cc2c-1nc1ccccc1c2CCNC(C)C [BELOTECAN],> 20,> 20
COc1ccc2c3c1O[C@H]1C(=O)CC[C@H]4[C@@H](C2)N(C)CC[C@]314 [HYDROCODONE],> 20,> 20
FC(F)c1nc2ccccc2n1-c1nc(N2CCOCC2)nc(N2CCOCC2)n1 [ZSTK-474],> 20,> 20
C=CCc1cc(OC)c2c(c1OC)OCO2 [APIOL],> 20,> 20
COc1ncnc(NS(=O)(=O)c2ccc(N)cc2)c1OC [SULFADOXINE],> 20,> 20
COc1cc2/c(=N/c3ccc(Br)cc3F)nc[nH]c2cc1OCC1CCN(C)CC1 [VANDETANIB],> 20,> 20
Cc1ncc[nH]1,> 20,> 20
CCCCC/C=C\C/C=C\C/C=C\C/C=C\CCCC(=O)NCCO [ANANDAMIDE],> 20,> 20
CC(=O)OCC(=O)[C@@]1(O)CC[C@H]2C3CCC4=CC(=O)C=CC4(C)[C@H]3C(=O)CC21C (some centres undefined),> 20,> 20
COc1cccc(N(C)C(=S)Oc2ccc3c(c2)CCCC3)n1 [LIRANAFTATE],> 20,> 20
O=c1cccc2n1C[C@@H]1CNC[C@H]2C1 [CYTISINICLINE],> 20,> 20
COCCOC(=O)C1=C(C)NC(C)=C(C(=O)OC(C)C)C1c1cccc([N+](=O)[O-])c1 (centres undefined) [NIMODIPINE],> 20,> 20
